In series [1] the test system is bronchospasm induced by serotonin. Kind of series: bronchospasmolytic activity (Konzett and Roessler), bronchospasm induced by serotonin. As to conditions: Cavia porcellus, read-out: Doses (ID50), Serotonin. It counts as in vivo, Dunkin-Hartley guinea-pig. The method, then: (§1) This activity was measured in the Dunkin-Hartley guinea-pig by the method of H. KONZETT and […] (Naunyn Schmiedebergs Arch. exp. Path. […] The anesthetized (urethane) and curarized (gallamine) guinea-pig is placed under assisted respiration. The endotracheal pressure is recorded. […] The compound to be tested is also administered intravenously two minutes before the administration of the spasmogen and then in 3 to 4 cumulative doses in increasing amounts at intervals of 15 minutes. Six animals per compound to be tested and per spasmogen are used.

For series [2], the system named is bronchospasm induced by histamine. Put plainly: bronchospasmolytic activity (Konzett and Roessler), bronchospasm induced by histamine. It counts as in vivo, Dunkin-Hartley guinea-pig. As to conditions: Cavia porcellus, read-out: Doses (ID50), Histamine. Here is the method:
as §1

In series [3] the test system is bronchospasm induced by acetylcholine. Kind of series: bronchospasmolytic activity (Konzett and Roessler), bronchospasm induced by acetylcholine. It counts as in vivo, Dunkin-Hartley guinea-pig. As to conditions: Cavia porcellus, read-out: Doses (ID50), Acetylcholine. Here is the method:
as §1

Series [4] has as its system plantar edema induced by immune complexes. Kind of series: "reverse passive Arthus" (RPA) test, anti-inflammatory and anti-edema activity. It counts as in vivo, Sprague-Dawley rat. Conditions: Rattus norvegicus, intravenous. Here is the method:
The reaction between a soluble antigen and antibodies in the organism may lead to an acute inflammatory reaction accompanied by release of histamine, modification of vascular permeability and formation of a localized edema. […] To this end, the Arthus reaction is induced by subplantar administration of 0.1 ml of heterologous antivalbumin reaginic serum into the right hind paw and by simultaneous intravenous injection of 1 ml/kg ovalbumin (25 mg/ml). The compound to be tested is administered intravenously 30 seconds before induction of the Arthus reaction, in a least 3 different doses. A group of 6 rats is used per dose of compound to be tested. The volume of the paw is measured by plethysmometry before the Arthus reaction and 3 to 5 hours after induction of the Arthus reaction, both in the control animals and in the treated animals. The effect of a compound on the reduction in the edema for each dose and at each measurement time (3 hours and 5 hours) is expressed in % of the edema observed in the control animals. The doses of the compounds (ID30 in μmole/kg) which inhibit by 30%, on average over all the animals, the volume of the edema observed in the control animals are given in Table VII below.

Series [5] concerns anaphylactic release of histamine, guinea-pig lung sections. Put plainly: inhibition of the anaphylactic release of histamine (proper effect). It counts as cell-based, Dunkin-Hartley guinea-pigs. As to conditions: Cavia porcellus, in vitro, read-out: Minimum inhibitory dose (MID). The method, then: (§2) Dunkin-Hartley guinea-pigs which are first passively sensitized by an intravenous injection of 1 ml of isologous antiovalbumin serum are used. Twenty-four hours after the injection, the lungs are then perfused with a Tyrode buffer to evacuate the blood, and then removed and cut into sections of 1 mm. These sections are divided up into test tubes (3 sections per tube) to give 10 experimental groups of lung sections per guinea-pig. A "positive" control group of lung sections is stimulated by addition of an ovalbumin solution (0.1 mg/ml) to induce the anaphylactic release of histamine and serves to determine the maximum amount of histamine (100%) which can be released. A "negative" control group which is not stimulated by ovalbumin serves to determine the naturally released amount of histamine (spontaneous release). In three other groups, the lung sections are incubated at 37° C. for 30 minutes in the ovalbumin solution in the presence of three different doses of the compound to be tested (one dose per group). […] At this dose, isoprenaline inhibits the release of histamine by 30 to 40%, which is verified on a control group treated only with isoprenaline alone at this dose. In addition, a supplementary control group which is not stimulated by ovalbumin is used to detect a possible spontaneous release of histamine by the highest dose of the compound tested. In each group, the histamine released in the incubation medium is measured by spectrofluorometry (D. P. EVANS et al., Life Sci., 12, (1973), 327-336).

The test system is the same in series [6]. Put plainly: potentiation of the inhibition of anaphylactic histamine release by isoprenaline. Conditions: with isoprenaline 10^-7 mole per liter. It is filed as cell-based, Dunkin-Hartley guinea-pigs. Here is the method: as §2
The subject of series [7] is longitudinal muscles of the ileum contracted by histamine. Kind of series: potentiation of the myorelaxing effect of isoprenaline on the ileum. It is filed as cell-based, Dunkin-Hartley guinea-pigs. Conditions: with isoprenaline 10^-7 mole/l; histamine 3.2 μmoles/l. The method, then: (cf. R. A. TURNER, "Screening Methods in Pharmacology", Ed. Acad. Press, San Diego, 1965, chapter IV, pages 43-47). […] Inhibition cycle: When the successive contractions induced by the histamine injections have become reproducible, the compound to be tested is injected immediately after the second wash. The contraction induced by the following injection of histamine is measured and compared with the average of the three preceding contractions caused by the repeated injections of histamine (control contractions). From the result obtained, the percentage inhibition of the contraction is calculated. Several cycles of histamine injection are then performed again, until the contractions of the muscle become reproducible again; the muscle is then ready for testing of another compound. The potentiating effect of a compound is measured in the course of a so-called "potentiation" cycle, which comprises three successive inhibition cycles. […] In the course of the second inhibition cycle, the percentage inhibition of the contraction obtained with the compound to be tested, injected alone at a given dose, is determined. In the third inhibition cycle, isoprenaline and the compound to be tested are injected simultaneously, and the percentage inhibition of the contraction is calculated for the dose used of the compound tested. The same experiments are repeated for each of the doses of the compounds tested.

Another series relates to PMN granulocytes. Put plainly: inhibition of the stimulation of PMN granulocytes (chemiluminescence). It is filed as cell-based, Rat. Conditions: for activity at 1 µM: FMLP 3.2×10^-7 mole/liter. An excerpt: Polymorphonuclear neutrophil granulocytes (PMN) are cells which are mobilized during inflammatory phenomena and which can be stimulated by various compounds, such as, for example, formylmethionyl-leucylphenylalanine (FMLP) or prostaglandins E (PGE1). The PMN granulocytes respond to these extracellular stimuli with an activation of the oxygen metabolism with release of toxic oxygenated metabolites. An excessive response of the PMN granulocytes may be the cause of a painful inflammation and is also accompanied by a reduction in the level of cyclic adenosine monophosphate (cAMP) in these granulocytes. Consequently, compounds which inhibit the respiratory burst of PMN granulocytes or which increase the level of cAMP can be regarded as very important in the treatment of arthritis and asthma. […] Rat PMN granulocytes (5×10^6 /ml) are preincubated in a phosphate buffer ([…], pH 7.4), containing luminol at a concentration of 10^-5 mole per liter, for 15 minutes at 37° C. and then for 5 minutes in the presence of the compound to be treated at a concentration of 10^-6 mole/liter. […] The luminescence which results from the stimulation is measured by means of an LKB 1251 luminometer according to the method of […] and […] (Infection and Immunology, 37, (1982), 34-39). An experimental cycle lasts 38 seconds. The reaction is repeated 9 times for each compound to be tested and the average of the results obtained is calculated.

In a further series the test system is cAMP in PMN granulocytes. Kind of series: increase in the level of cAMP in PMN granulocytes. It is filed as cell-based, Rat. As to conditions: […]10^-6 mole per liter; PGE1 10^-6 mole/liter; control 4.3. An excerpt:
Polymorphonuclear neutrophil granulocytes (PMN) are cells which are mobilized during inflammatory phenomena and which can be stimulated by various compounds, such as, for example, formylmethionyl-leucylphenylalanine (FMLP) or prostaglandins E (PGE1). The PMN granulocytes respond to these extracellular stimuli with an activation of the oxygen metabolism with release of toxic oxygenated metabolites. An excessive response of the PMN granulocytes may be the cause of a painful inflammation and is also accompanied by a reduction in the level of cyclic adenosine monophosphate (cAMP) in these granulocytes. […] The reaction is then stopped by addition of 1 ml of propanol. After centrifugation at 15,000 g for 3 minutes, the supernatant is recovered and evaporated and the amount of cAMP in the residue is determined by radioimmunological assay according to the process recommended by the supplier of the reagent used for this purpose (Amersham). A control test is carried out under the same conditions, but in the absence of the compound to be tested.

A short description of series [8]: multiple-trial passive avoidance: learning. As to conditions: 2.5 mg/kg i.p. It is filed as in vivo, male Sprague-Dawley rats. The method, then: To evaluate whether a compound can promote learning, the following test is carried out. […] Rats which remain on the mat for this period have acquired the avoidance reflex and are replaced in their original cage without receiving the electric shock. […] The results obtained in the test used to evaluate learning are given in columns 3 and 4. […] The results were analyzed by the Student test.

A further series in a line: toxicity, Irwin's test. It counts as in vivo. Conditions: i.p.; death of two animals out of three within 48 hours. Here is the method:
Progressive doses of the compound to be tested are administered intraperitoneally to groups of three mice until the lethal dose is reached (dose which causes the death of two animals out of three within 48 hours).

Series [9] deals with amnesia induced by scopolamine. Put plainly: multiple-trial passive avoidance: mnemic retention, amnesia induced by scopolamine. Conditions: 2.5 mg/kg i.p. + 0.5 mg scopolamine.
Procedure: To this end, the method of multiple-trial passive avoidance has been used. […] The test is carried out on male Sprague-Dawley rats (160-200 g). which are kept in standard cages throughout the experiment. The apparatus used is a transparent square cage with 35 cm sides and 25 cm high, fitted with a grid floor which can be electrified. A rubber insulating mat (10×17 cm) is placed on the floor in one of the corners of the cage.
Each animal is subjected to four tests at times 0, 4, 24 and 28 hours. In the first test (time 0), the animal is placed on the rubber mat and the time which it takes to decide to leave this position to explore the cage is recorded. After 20 seconds of exploration, the rat receives an electric shock (3 seconds duration) in the paws, causing an escape reaction. The rat is immediately removed from the apparatus and replaced in its original cage. In the course of the three subsequent tests (times: 4, 24 and 28 hours), the animal is replaced on the rubber mat and the time taken to leave this position is recorded. As soon as the four paws of the animal rest on the grid, it receives an electric shock and is removed immediately from the apparatus.
At the start of the experiment, the rats are divided into 4 homogeneous groups of 15 animals. Thirty minutes before each test, each group of animals is subjected to a predetermined treatment:
Groups 1 and 2 are used in the first experiment (learning) and groups 3 and 4 in the second experiment (mnemic retention).
The differences found are analyzed statistically by the Mann-Whitney method.
The mark [10] stands for this setting: 3 hours after induction of the Arthus reaction, read-out: Dose (ID30), 3 hours.
Setting [11] is: 5 hours after induction of the Arthus reaction, read-out: Dose (ID30), 5 hours.
The mark [12] stands for this setting: Rattus norvegicus, 10^-6 mole/l, read-out: Residual chemiluminescence.

Each structure is given as a SMILES string. Like-named read-outs stand apart in the source and are kept apart here.

`Cn1c(=O)c2[nH]cnc2n(C)c1=O` [theophylline, reference compound]: the ED50 in series [1] (iv) turned out to be 4.6 µmol/kg; in series [2] (iv), 5.6 µmol/kg; in series [3] (iv) it was 10 µmol/kg. Further, the ED30 in series [4] (setting [10]) was 18 µmol/kg; in series [4] (setting [11]), 10 µmol/kg. In [5], the minimal effective concentration is 100 µM. Also, the “Minimum potentiating dose (MPD)” value in series [6] and in series [7] was 1000.0 µmol/L throughout. In addition, the “inhibition of the stimulation of PMN granulocytes” value with PMN granulocytes (10^-6 mole/l) is “completely inactive”. Moreover, the activity at 100 µM in the series on PMN granulocytes (Rattus norvegicus, 10^-4 mole/l, read-out: Residual chemiluminescence) came out at 65%. The activity at 1 µM in the series on PMN granulocytes (setting [12]) came out at 100%. Also, the “Amount of cAMP produced” value in the series on cAMP in PMN granulocytes came out at 5.0 picomoles per 10^7 cells.

On to `CCCc1nc(NC2CC2)nc(N2CC(O)C2)n1` [Compound 15], for which the “Learning, average number of trials, group 2” value in [8] came to 1.9 trials. For the same compound, the ED50 in series [1] (intravenous, serotonin-induced bronchospasm) turned out to be 0.2 µmol/kg; in series [2] (intravenous, histamine-induced bronchospasm), 0.08 µmol/kg; in series [3] (intravenous, acetylcholine-induced bronchospasm), 0.3 µmol/kg. Further, the ED30 is 39 µmol/kg in series [4] (setting [10]) and 4 µmol/kg in [4] (setting [11]). In series [5], the minimal effective concentration came to 10 µM. The “Minimum potentiating dose (MPD)” value in [6] and in series [7] was 3.2 µmol/L in each case. In the series on PMN granulocytes (setting [12]), the activity at 1 µM was found to be 70%. The compound further came in with a Lethal dose in the series “toxicity, Irwin's test” of over 498 mg/kg. Further, the “Period of remaining on the mat, group 4” value is 19.5 s in series [9] (4 hours), 94.3 s in series [9] (24 hours), 112.7 s in [9] (28 hours) and 9.8 s in series [9] (time 0).
